According to US20210261495A1, “COMPOSITIONS AND METHODS OF USING ITACONIC ACID DERIVATIVES” (ERGON PHARMACEUTICALS, LLC, priority 2018, published 2021):

Experiments:
M-MDSCs = experiment: Tumor immunophenotyping of CT26 tumors (MDSCs); format: in vivo, mice; conditions: 0.2 mg/kg ip, CT26 tumors 250-1500 mm^3
Experimental: Tumor Immunophenotyping. To determine the effect of a therapeutic agent on a specific immune cell type in vivo, syngeneic tumor models were employed. In a typical experiment, tumors were allowed to grow to a certain size and were then treated for a specific number of days prior to termination. At the end of the experiment, animals were euthanized, tumors were excised and single cell suspensions were immediately obtained through dissociation of tumor tissues with collagenase. Tumor cell suspensions were then subject to FACS analysis in order to determine the presence of various biomarkers.
Tumor Immunophenotyping of CT26 Tumors. CT26-tumor bearing mice treated with either vehicle control or 0.2 mg/kg Compound (6) (ip, twice a day) were euthanized when the tumors had reached a size of 250-1500 mm^3. Tumors were excised and single cell suspensions were obtained using the tumor dissociation kit from Miltenyi Biotec per manufacturer's instructions. The suspensions were analyzed for the presence of MDSCs.

hCD8^+ T cells = experiment: hCD8+ T cell differentiation into effector T cells: IFNγ release, ELISA; format: cell-based, human; conditions: for IFNγ (% Control): 24 hrs, normalized per number of cells
Experimental: Differentiation of T Cells. The ability of T cells to differentiate from a naïve to an effector state was assessed by measuring the levels of IFNγ or GZMB synthesis following activation of the cells using a cocktail of anti-CD2/anti-CD3/anti-CD28 antibodies. Expression of IFNγ, GZMB, and other effector cytokines was measured by determining their concentration in the conditioned media 24-72 hrs after initiation of activation or by estimating the % cells expressing these cytokines using fluorescence-activated cell sorting (FACS).
Augmentation of hCD8^+ T Cell Differentiation into Effector T Cells. Naïve CD8+ T cells were isolated from human buffy coats using magnetic separation and the appropriate kit from Miltenyi Biotec. Cells were then activated using a cocktail of anti-CD2/anti-CD3/anti-CD28 antibodies. Differentiation of the cells into effector T cells was assessed by determining the levels of IFNγ and GZMB released into the media at 24 and 72 hrs, respectively using appropriate ELISA kits. Cytokine concentrations were normalized per number of cells present and expressed as % Untreated Control.

O=C(O)/C(=C\c1ccc(F)cc1)C(Cc1ccccc1)C(=O)O (stereo not drawn) [Compound (6), 2-benzyl-3-[(4-flurophenyl)methylidene]butanedioic acid]
intratumoral frequency of M-MDSCs (M-MDSCs): significantly reduces | IFNγ (% Control) (hCD8^+ T cells; 1 nM): 129 % Control | IFNγ (% Control) (hCD8^+ T cells; 10 nM): 510 % Control | IFNγ (% Control) (hCD8^+ T cells; 100 nM): 274 % Control | IFNγ (% Control) (hCD8^+ T cells; 10 μM): 370 % Control | IFNγ (% Control) (hCD8^+ T cells; 100 μM): 198 % Control | IFNγ (% Control) (hCD8^+ T cells; 500 μM): 47 % Control | IFNγ synthesis following TCR activation (hCD8^+ T cells; high (>100 μM) concentrations): decrease | synthesis of INFγ following TCR activation (hCD8^+ T cells; low concentrations, 0.1 nM to 100 μM): increased synthesis
